Assays:
[1] = tested on: Acta2 gene; test: Fibrosis marker gene expression analysis (quantitative PCR), Acta2 gene; type: cell-based, rat; settings: TGF β 1 ng/mL, 24 hours, Dunnett's test vs. TGF β(+), FIG. 2(a)
Method: (§1) Gastrocnemius, soleus, plantaris muscle, tibialis anterior, extensor digitorum longus, and quadriceps were extracted from male Fischer 344 rats of 9 to 15 weeks old under anesthesia, and minced in phosphate buffered saline (PBS) (Life Technologies Corporation) on ice. The minced muscle tissue was enzymatically degraded by Protease (Sigma-Aldrich) at 37° C., and then centrifuged repeatedly, whereby the muscle satellite cells were isolated. The muscle satellite cells were suspended in Dulbecco's Modified Eagle Medium (DMEM) containing 10% fetal equine serum, and cultured for 24 hours. After culturing, centrifugation was performed again, and the deposited muscle satellite cells were seeded onto an 8-well slide glass (Thermo Fisher Scientific) to a density of 5×10^4 to 7×10^4 cells/mL in F-10 medium (Gibco) containing 20% bovine serum. After seeding, the muscle satellite cells were cultured for 72 hours or 120 hours. […] The cDNAs obtained by reverse transcription reaction was subjected to quantitative PCR in Step One Plus Real Time PCR System using TaqMan Fast Universal PCR Mastermix (Life Technologies Corporation). The expression levels of Colla1 gene and Acta2 gene as a myofibroblast marker were measured. For quantitative PCR, the cells were first maintained at 95° C. for 20 seconds, and then subjected to 40 cycles of reaction at 95° C. for 1 second and 60° C. for 20 seconds. […]

[2] = tested on: Colla1 gene; test: Fibrosis marker gene expression analysis (quantitative PCR), Colla1 gene; type: cell-based, rat; settings: TGF β 1 ng/mL, 24 hours, FIG. 2(b)
Method: as §1

[3] = tested on: rat skeletal muscle-derived muscle satellite cells; test: Morphological changes of muscle satellite cells to myofibroblasts under TGF β fibrosis induction (Masson's Trichrome staining); type: cell-based; settings: TGF β 1 ng/mL
Method: Gastrocnemius, soleus, plantaris muscle, tibialis anterior, extensor digitorum longus, and quadriceps were extracted from male Fischer 344 rats of 9 to 15 weeks old under anesthesia, and minced in phosphate buffered saline (PBS) (Life Technologies Corporation) on ice. The minced muscle tissue was enzymatically degraded by Protease (Sigma-Aldrich) at 37° C., and then centrifuged repeatedly, whereby the muscle satellite cells were isolated. The muscle satellite cells were suspended in Dulbecco's Modified Eagle Medium (DMEM) containing 10% fetal equine serum, and cultured for 24 hours. After culturing, centrifugation was performed again, and the deposited muscle satellite cells were seeded onto an 8-well slide glass (Thermo Fisher Scientific) to a density of 5×10^4 to 7×10^4 cells/mL in F-10 medium (Gibco) containing 20% bovine serum. After seeding, the muscle satellite cells were cultured for 72 hours or 120 hours. The muscle satellite cells for tissue staining were cultured for 72 hours, and muscle satellite cells for genetic analysis were cultured for 120 hours to provide enough cells. In the case of the muscle satellite cells to be cultured for 120 hours, the F-10 medium containing 20% bovine serum was replaced 72 hours after seeding. After the culturing for 72 hours or 120 hours, the muscle satellite cells were cultured in a differentiation-inducing medium for 24 hours. The differentiation-inducing medium was a medium in which a TGF β (TGF-β) signal inhibitor, quercetin, or solvent was added in an amount shown in Table 1 to Dulbecco's Modified Eagle Medium (DMEM) containing 2% fetal equine serum. TGF β (Sigma-Aldrich) was used for fibrosis induction. The compound was added to the differentiation-inducing medium using HCl as solvent to a final concentration of 1 ng/mL. TGF β was added when a TGF β signal inhibitor or quercetin was added. The TGF β signal inhibitor was SB525334 (6-[2-tert-butyl-5-(6-methyl-pyridin-2-yl)-1H-imidazol-4-yl]-quinoxaline available from Wako Pure Chemical Industries, Ltd.). […]

Row | SMILES | expression of Acta2 gene ([1]; SB525334 1 μM) | expression of Colla1 gene ([2]; SB525334 1 μM, Dunnett's test vs. TGF β(+)) | TGF β-induced morphological changes of muscle satellite cells to myofibroblasts ([3]; SB525334 1 μM, 24 hours in differentiation-inducing medium, FIG. 1(c)) | expression of Acta2 gene ([1]; quercetin 100 μM) | expression of Colla1 gene ([2]; quercetin 50 μM and 100 μM) | morphological changes of muscle satellite cells to myofibroblast-like cells ([3]; quercetin 50 μM, 24 hours, vs. TGF β-added group, FIG. 1(d)) | morphological changes of muscle satellite cells to myofibroblasts ([3]; quercetin 100 μM, 24 hours, vs. 50-μM quercetin-added group, FIG. 1(e))
1 | Cc1cccc(-c2[nH]c(C(C)(C)C)nc2-c2ccc3nccnc3c2)n1 [SB525334, 6-[2-tert-butyl-5-(6-methyl-pyridin-2-yl)-1H-imidazol-4-yl]-quinoxaline, reference compound] | significantly inhibited | significantly inhibited | clearly inhibited | – | – | – | –
2 | O=c1c(O)c(-c2ccc(O)c(O)c2)oc2cc(O)cc(O)c12 [quercetin] | – | – | – | significantly inhibited | inhibited in a concentration-dependent manner | more inhibited | stronger effect of inhibiting morphological changes

— patent publication US20190388387A1, “COMPOSITION FOR INHIBITING MYOFIBROSIS” (SUNTORY HOLDINGS LIMITED, priority 2017, published 2019)
